Experimental data from patent publication US20160324992A1, “IDENTIFICATION AND TREATMENT OF VULNERABLE PLAQUES” (OTTAWA HEART INSTITUTE RESEARCH CORPORATION, priority 2015, published 2016).
Read-outs that look alike come from different tables or passages of the source. Residues, ends and D or L forms follow the SMILES beside them. *: point of attachment. Cbz = O=C(OCc1ccccc1)*; CH2F = FC*

Tests used:
[1] = tested on: bone-marrow-derived macrophages (BMDMs); assay type: cell-based; conditions: BMDMs
Method: (§1) Bone-marrow derived macrophages. Bone-marrow derived macrophages (BMDMs) were isolated from femurs of adult VVT or Rip3^−/− mice and differentiated into macrophages using DMEM supplemented with 10% FBS and 1% penicillin-streptomycin plus either 20% L929 conditioned media or 20 ng/mL mouse M-CSF for 7-10 days. To polarize macrophages to M1 or M2, BMDMs were incubated on day 7 with 1 μg/mL LPS and 100 ng/mL IFNγ or 10 ng/mL IL-4 respectively for 24 h. Damage Associated Molecular Patterns (DAMPs) were obtained by subjecting BMDMs to 3×30 min freeze-thaw cycle or treatment with 100 ng/mL LPS and 50 μM zVAD.fmk for 24 hours, after which the media was collected and added to naïve cells at indicated ratios.
(§2) Cell viability assays. Cell death was determined by measuring lactate dehydrogenase (LDH) release into the media. Briefly, cells were treated with 100 μg/ml oxLDL in the presence or absence of 25 μM zVAD.fmk or 50 μM necrostatin-1 (Nec-1) for 24 hours and media was collected and centrifuged to pellet cell debris. The amount of LDH in media was measured in a kinetic assay by adding PBS containing 0.02% NADH and 0.03% sodium pyruvate and measuring absorbance at 340 nm for 10 minutes at 1 minute intervals. The slope of the curve provides a measure of cell death, which was expressed as fold change relative to control.
as §1, with “Rip3−/−” for “Rip3^−/−”
as §2, with “ug/ml” for “μg/ml”, “uM” for “μM”

[2] = tested on: FADD-deficient variant of human Jurkat T cells treated with TNF-α; conditions: SAR study of Teng et al. 2005, relative to Nec-1; cited from earlier work
[3] = tested on: atherosclerotic lesions in ApoE−/− mice; assay: Ex vivo autoradiography of aorta, en face and Oil Red O comparison; assay type: in vivo, mouse; conditions: ApoE−/− mice, ˜1 mCi of tracer, 2 hr post injection
Text: Radiochemistry and ex vivo autoradiography study with ApoE^−/− mice. The tracer ^123I-Nec-1 (7-^123I-Nec-1) was synthesized by a Cu(I) catalyzed direct halogen exchange reaction with the precursor 7-Br-Nec-1 and Na^123I. Eight week-old female apolipoprotein E knockout (Apo E^−/−) mice were purchased from Charles River Laboratories and fed either a chow or western diet (TD.10885, Harlan Laboratories) for 2 months (total n=6 mice). 7-^123I-O-Nec-1 (37.0-55.5 MBq) was administrated intravenously into the mice under anesthetic. After 2 hr, the mice were euthanized and perfused with PBS followed by 10% formalin via left ventricle cannulation. Aorta was dissected from heart at the base using a dissecting microscope following removal of surrounding fat and connective tissue. En face specimens were immediately exposed to super resolution phosphor screens in an autoradiography cassette. After overnight exposure at room temperature, the screens were scanned with a Cyclone Phosphor Imager (Perkin Elmer, Downers Grove, Ill.). Images were analyzed using OptiQuant™ 5.0 software. The regions of interest (ROI) were drawn around the lesions on the aortic arch, and the counts in Digital Light Unit (DLU) and surface areas in mm^2 were measured. The DLU was converted to activity in μCi using a set of calibration standards with known activities, which were exposed and scanned on the same screen used for the aorta samples, as previously described (Zhao et al, 2007; Matter et al., 2006). The percentage injected dose (% ID) was calculated from dividing the activity (pCi) of the lesion by the injected activity. Activity density in % ID/m^2 was calculated and normalized by animal body weight to get % ID×kg/m^2. The areas of the lesions and the whole aortic arch in mm^2 were also recorded using the OptiQuant™ 5.0 software, and the percentage of lesion within the area of the aorta vessel wall was calculated.
Ex vivo autoradiography study with ApoE^−/− mice. Eight week-old female apolipoprotein E knockout (Apo E^−/−) mice were purchased from Charles River Laboratories (Charles River, Canada) and fed either a chow or western diet (TD.10885, Harlan Laboratories) for 2 months (n=3 per group). […] 7-^123I-O-Nec-1 (37.0-55.5 MBq) was administrated intravenously into the mice under anesthetic. After 2 hr, the mice were euthanized in a CO2 chamber. Using a Gilson Minipuls 2 peristaltic pump, the mice were perfused with 20 mL phosphate buffered saline (PBS) followed by 10 mL of 10% formalin via left ventricle cannulation. Perfusate was drained from a cut within the right atrium. Aorta was dissected from heart at the base using a dissecting microscope following removal of surrounding fat and connective tissue. For en face experiments aortic tissues were flattened by a longitudinal cut through one side of the aortic wall cutting through the carotids and the innominant artery until the aorta was split forming a Y-shaped structure.
The uptake and distribution of the tracer on aortic tissue was studied using digital autoradiography method. En face specimens were immediately exposed to super resolution phosphor screens in a Fisher Biotech autoradiography cassette. After overnight exposure at room temperature, the screens were scanned with a Cyclone Phosphor Imager (Perkin Elmer, Downers Grove, Ill.). Images were analyzed using OptiQuant™ 5.0 software. The regions of interest (ROI) were drawn around the lesions on the aortic arch, and the counts in Digital Light Unit (DLU) and surface areas in mm^2 were measured. The DLU was converted to activity in pCi using a set of calibration standards with known activities, which were exposed and scanned on the same screen used for the aorta samples. The percentage injected dose (% ID) was calculated from dividing the activity (pCi) of the lesion by the injected activity. Activity density in % ID/m^2 was calculated and normalized by animal body weight to get % ID×kg/m^2. […]

[4] = tested on: ApoE−/− mice with established atherosclerosis; assay: Atherosclerosis study: time-release pellets in Western diet fed ApoE−/− mice; assay type: in vivo, mouse
Method: Atherosclerosis Studies. All animal experiments were performed in accordance with the Animal Care and Use Committee, University of Ottawa, Canada. Eight week old Apo E^−/− mice (total n=17 mice) were fed an adjusted calories diet (21% fat; 0.2% cholesterol, Harlan Teklad) for 4 weeks to induce atherosclerotic progression. Mice were then injected with time-release placebo or Nec-1s tablets (2 mg/kg/day), which were synthesized by Innovative Research of America, USA. Mice were euthanized after 6 weeks of treatment, perfused with saline and aortic roots were embedded in OCT medium and frozen. Aortic roots were sectioned (10 μm) and stained with hematoxylin and eosin for lesion area and necrotic core quantification, and a minimum of 10 sections per animal were measured across the length of the entire aortic root. For en face aortic lesion quantifications, aortas were dissected removing all branching vessels down to the femoral bifurcation and then sliced ventrally and images of aortas were digitally captured using ImagePro™. Lesion areas within the entire length of the aorta were quantified using Image J™ and expressed relative to the total aortic surface area. Immunohistochemistry for vascular smooth muscle cells was performed using a primary antibody for a-smooth muscle actin (monoclonal, Sigma) conjugated to alkaline phosphatase and visualized using SigmaFAST Red (Sigma). Statistical significance between the two groups were analyzed using Students' t-test (p<0.05).
Atherosclerosis Studies. All animal experiments were performed in accordance with the Animal Care and Use Committee, University of Ottawa, Canada. Eight week old apoE−/− mice (total n=17 mice) were fed an adjusted calories diet (21% fat; 0.2% cholesterol, Harlan Teklad) for 4 weeks to induce atherosclerotic progression. Mice were then injected with time-release placebo or stable Necrostatin-1 (Nec-1)15 tablets (2 mg/kg/day), which were synthesized by Innovative Research of America, USA. Mice were euthanized after 6 weeks of treatment, perfused with saline and aortic roots were embedded in OCT medium and frozen. Aortic roots were sectioned (10 μm) and stained with hematoxylin and eosin for lesion area and necrotic core quantification, and a minimum of 10 sections per animal were measured across the length of the entire aortic root. For en face aortic lesion quantifications, aortas were dissected removing all branching vessels down to the femoral bifurcation and then sliced ventrally and images of aortas were digitally captured using ImageProTM. Lesion areas within the entire length of the aorta were quantified using Image JTM and expressed relative to the total aortic surface area. Immunohistochemistry to visualize macrophages and smooth muscle cells was performed using primary antibodies to CD68 (rat monoclonal, Serotec) or phosho-MLKL (rabbit polyclonal, Abcam) with a secondary conjugated to biotin and α-smooth muscle actin (monoclonal, Sigma) conjugated to alkaline phosphatase and visualized using DAB or SigmaFAST Red (Sigma), respectively. Image J was used to quantify positive staining area and statistical significance between the two groups were analyzed using Students' t-test (p<0.05)

Compound: COC(=O)C[C@H](NC(=O)[C@H](C)NC(=O)[C@@H](NC(=O)OCc1ccccc1)C(C)C)C(=O)CF [zVAD.fmk] (Cbz-Val-Ala-Asp(OMe)-CH2F)
- cell death (LDH release), fold change relative to control ([1]; 100 μg/mL oxLDL + 25 μM zVAD.fmk, 24 h, mean±SEM): 5.7±0.7 fold
- effect on cell death in response to oxLDL (in words) ([1]; oxLDL + pan caspase inhibitor zVAD.fmk 25 μM, 24 h): significantly enhanced cell death

Compound: O=C1NC(=S)NC1Cc1c[nH]c2ccccc12 (centres unmarked) [Nec-1i]
- necroptosis inhibitory activity (in words) [2]: completely abolished

Compound: COc1ccc([C@@H]2[C@@H]3CCc4ccc([123I])cc4C3=NN2C(C)=O)cc1 [8-^123I-Nec-3R]
- uptake in atherosclerotic lesions by autoradiography (in words) [3]: significant lesion uptake

Compound: CN1C(=O)C(Cc2c[nH]c3c(Cl)cccc23)NC1=S (centres unmarked) [7-Cl-Nec-1]
- necroptosis inhibitory activity (in words) [2]: increased activity

Compound: CN1C(=O)NC(Cc2c[nH]c3c(Cl)cccc23)C1=O (centres unmarked) [Nec-1s]
- atherosclerotic lesion area versus placebo (in words) ([4]; Western diet 4 weeks then 2 mg/kg/day for 6 weeks): reduced en face lesion areas
- reduction of lesion necrotic core area compared to placebo ([4]; aortic sinus, 2 mg/kg/day, 6 weeks): 62%

Compound: COC(=O)C[C@H](NC(=O)[C@H](C)NC(=O)[C@@H](NC(=O)[C@H](Cc1ccc(O)cc1)NC(=O)OCc1ccccc1)C(C)C)C(=O)CF [zYVAD.fmk]
- effect on cell death in response to oxLDL (in words) ([1]; co-treatment with caspase-1 inhibitor zYVAD.fmk 20 uM): did not reduce or prevent cell death
